According to US20160075695A1, “BENZIMIDAZOLE DERIVATIVES AS BROMODOMAIN INHIBITORS” (Gilead Sciences, Inc., priority 2013, published 2016):

Legend:
MM.1S cells = experiment: MM.1S viability assay (CellTiter Glo); type: cell-based; settings: Homo sapiens, MM1.S, 72 hr incubation, read-out: MM.1S Cell viability (EC50)
Procedure: For cell viability in the MM.1S cell line, cells were seeded onto 384-tissue culture treated plates (Greiner) at a density of 60K cells/well containing titrations of small molecule inhibitors or DMSO (0.2%). After 72 hr incubation cells were analyzed for cell viability by addition of CellTiter Glo (Promega) to the assay plates. After 15 min incubation at room temperature the signal from the viable cells was analyzed on an Envision plate reader (Perkin Elmer). EC50 values were calculated from the fit of the dose-response curves to a four-parameter equation. All EC50 values represent geometric mean values of a minimum of four determinations. These assays generally produced results within 3-fold of the reported mean.

c-Myc in MM.1S cells = experiment: c-Myc down regulation assay (MSD) in MM.1S cells; type: cell-based; settings: Homo sapiens, MM1.S, 24 hrs incubation
Procedure: An enzyme linked immunosorbent assay using the Meso Scale Diagnostic (MSD) technology was used to detect levels of c-Myc produced in MM.1S cells (ATCC). MM.1S cells were cultured in RPMI-1640 media (Corning), supplemented with 10% FBS (Hyclone), 1% penicillin-streptomycin (Cellgro), 2-mercaptoethanol (Gibco) and seeded onto 384-tissue culture treated filter binding plates (Millipore) at a density of 40K cells/well containing titrations of small molecule inhibitors or DMSO (0.4%) in a volume of […] of media. After an incubation time of 24 hrs, cells were lysed (1× lysis buffer (Thermo) supplemented with protease and phosophatase inhibitor cocktail (Thermo)) and the plates centrifuged (1000 rpm, 1 min) to capture c-Myc on MSD plates coated with a monoclonal c-Myc antibody (Origene). Assay wells were washed (3× Invitrogen wash buffer) and probed with a polyclonal c-Myc antibody (Abeam) and MSD detection antibody solution in order to detect levels of c-Myc on the MSD platform. c-Myc capture was reported in pg/ml based on a standard curve using recombinant c-Myc protein (Prosci). EC50 values were calculated from the fit of the dose-response curves to a four-parameter equation. All EC50 values represent geometric mean values of a minimum of four determinations. These assays generally produced results within 3-fold of the reported mean.

MT-4 cells = experiment: MT-4 proliferation assay; type: cell-based; settings: Homo sapiens, MT4, 120 h; Table 2; 5 days, Cell Titer Glo luminescence
Procedure: Compounds were tested in a standardized high-throughput 384-well assay format. Each compound was serially diluted 3-fold in 100% DMSO in polypropylene 384-well plates using a Biomek FX Workstation, and 0.4 μL compound added to an assay plate containing 40 μL RPMI media. Compounds were arranged in a horizontal pattern, with 10 concentrations per compound, and 8 compounds added per plate. Due to low DMSO tolerability, the final DMSO concentration never exceeded 0.5% (v/v). Each assay plate contained 10 μM Puromycin and 0.5% DMSO in RPMI-1640 as positive and negative controls respectively. MT-4 cells (HTLV-1 transformed, human T lymphoblastoid cells, NIH Aids Reagent program) were added in volumes of 35 μL per well and 2,000 cells per well using a Biotek uFlow Workstation (Biotek, Winooski, Vt.), and the plates subsequently incubated for 5 days at 37° C. in an incubator set at 5% CO2 and 90% humidity.
After 5 days, 22 μL Cell Titer Glo (Promega) was added to the assay plates with a Biotek uFlow Workstation. Plates were subsequently placed on a Perkin Elmer Envision Plate Reader for 5 minutes before the luminescence signal was read.

BRD4-1 = target: T1, BRD4-1 (Homo sapiens, UniProt O60885); experiment: BRD4-1 Ligand KI assay (TR-FRET, Cy5 labeled probe displacement); type: binding; settings: 2 nM BRD4-1, 1.0 nM labeled ligand, 60 minutes at 25° C.; read-out: BRD4-1 Ligand KI (IC50)
T1 construct: made in house; host or cells: Escherichia coli
Procedure: (§1) Binding of the two tandem bromodomains, BRD4-I and BRD4-2, to a Cy5 labeled probe/ligand (Compound 1020-501) were measured using a homogeneous time resolved fluorescence resonance energy transfer (TR-FRET) assay.
(§2) The labeled ligand specifically binds BRD4-1 and BRD4-2 and can be displaced by a small molecule inhibitor that shares a similar or overlapping binding site. BRD4-I and BRD4-2 were expressed and purified from Escherichia coli as N-terminal His6-tagged proteins. A Eu-cryptate labeled anti-His antibody (Perkin Elmer) was used to specifically bind BRD4. […] Assays were performed in 50 mM Hepes (pH 7.5), 150 mM NaCl, 0.1 mg/ml BSA, 0.01% (v/v) Brij, 0.5% (v/v) DMSO and 1.0 nM labeled ligand at the following concentrations for each BRD4 isoform: 2 nM BRD4-1 and 0.5 nM BRD4-2. After an assay reaction time of 60 minutes at 25° C., binding was measured with 2 nM Eu-cryptate labeled anti-His antibody. TR-FRET signal was detected on an Envision plate reader (Ex: 320 nm; Em: 615/665 nm; 100 μs delay and 200 μs read window). […] All IC50 values represent geometric mean values of a minimum of four determinations. The IC50 values were converted to Ki values (dissociation constant for BRD4-inhibitor complex) using the Cheng and Prusoff equation for a competitive inhibitor mode of action. These assays generally produced results within 3-fold of the reported mean.

BRD4-2 = target: T2, BRD4-2 (Homo sapiens, UniProt O60885); experiment: BRD4-2 Ligand KI assay (TR-FRET, Cy5 labeled probe displacement); type: binding; settings: 0.5 nM BRD4-2, 1.0 nM labeled ligand, 60 minutes at 25° C.; read-out: BRD4-2 Ligand KI (IC50)
T2 construct: made in house; host or cells: Escherichia coli
Procedure: as §1, §2

SMILES | EC50 (MM.1S cells) | EC50 (c-Myc in MM.1S cells) | EC50 (MT-4 cells) | IC50 (BRD4-1) | IC50 (BRD4-2)
Cc1noc(C)c1-c1cc(C(O)(c2cccnn2)C2CCCO2)c2nc(C3CC3)[nH]c2c1 (single isomer, unassigned) [Compound 1020-289, (2-cyclopropyl-6-(3,5-dimethylisoxazol-4-yl)-1H-benzo[d]imidazol-4-yl)(pyridazin-3-yl)(tetrahydrofuran-2-yl)methanol] | 17.8 nM | 5.7 nM | 4.2 nM | – | –
Cc1noc(C)c1-c1cc(C(O)(c2ncccn2)c2ccc(F)cc2F)c2nc(C3CC3)[nH]c2c1 (stereo not shown) [Compound 1020-257, (2-Cyclopropyl-6-(3,5-dimethylisoxazol-4-yl)-1H-benzo[d]imidazol-4-yl)(2,4-difluorophenyl)(pyrimidin-2-yl)methanol] | – | – | – | 4.7 nM | 5.6 nM
Cc1cccc(C(O)(c2cc(-c3c(C)noc3C)cc3[nH]c(C4CC4)nc23)C2CCCO2)n1 (racemic) [Compound 1020-114, (2-cyclopropyl-6-(3,5-dimethylisoxazol-4-yl)-1H-benzo[d]imidazol-4-yl)(6-methylpyridin-2-yl)(tetrahydrofuran-2-yl)methanol] | – | – | – | 3.8 nM | 2.7 nM
